Experimental data as given in US4530931A, “8-Quinoline carbanilates for the inhibition of lipolysis” (priority 1984, dated 1985).

Assays:
Canine cardiac lipases = test: Myocardial lipase assay; format: biochemical; conditions: for Lipase % Inh. at 100 μM: 100 μM compound, tested in duplicate; for IC50: triolein emulsion, Tris pH 6.8, read-out: Lipase I50
Protocol: All compounds were dissolved in DMSO (final concentration 3.0%) and tested in duplicate at a concentration of 100 μM. Canine cardiac lipases were obtained by extracting washed heart membranes with buffer plus heparine and a small amount of Triton X-100 detergent. Because these enzymes are only active at an oil-water interface, the enzyme reaction is run in an oil-water emulsion that contains triolein substrate, Tris buffer (50mM, pH 6.8) and a small amount of bovine serum albumin (0.5%) added to stabilize the emulsion. A small amount of tritiated triolein was added to the unlabelled triolein substrate. Tritium-labelled oleic acid released by the lipases was extracted into hexane, separated from unreacted triolein and counted in a scintillation counter. Inhibitory agents reduce the amount of radioactivity appearing in the free fatty acid fraction isolated in the extraction procedure.

rat adipocyte lipolysis = test: Rat adipocyte assay (epinephrine-stimulated lipolysis, glycerol release); format: cell-based; conditions: for IC50: epinephrine 3 μM plus methylisobutylxanthine 10 μM, 1 hour at 37° C., read-out: Adipocyte I50; for Adipocyte % Inhib. at 3 μM: 3 μM compound; for inhibition at 100 µM: read-out: Adipocyte % Inhib. at 100 μM
Protocol: Abdominal fat pads were removed from male rats weighing 200-250 grams and placed in Krebs-bicarbonate buffer gassed with 95% O2 /5% CO2. The fat pads were digested with collagenase for 1 hour at 37° C., washed twice with Krebs-bicarbonate buffer and distributed among a set of 20 ml plastic counting vials. Two such vials received only buffer and cells (4 ml) but no agonists or antagonists. The remaining vials received epinephrine (3 μM) plus the phosphodiesterase inhibitor methylisobutylxanthine (10 μM). Test compounds were dissolved in DMSO or water to a concentration of […] and […] was added to the buffer plus cells in the counting vials. The final compound concentration for routine screening was 200 μM (final concentration of DMSO=1%).
The cells were incubated for 1 hour at 37° C. under a 95% O2 /5% CO2 atmosphere. The incubation was stopped by placing the vials in crushed ice. The cells and medium were transferred to test tubes, centrifuged and the cell layer removed by aspiration. The aqueous phase was assayed for glycerol using the enzyme glycerol dehydrogenase.
The glycerol dehydrogenase assay for glycerol depends on the enzyme catalyzed conversion of glycerol to glyceraldehyde and NAD to NADH. The assay can detect as little as 5-10 nanomoles of glycerol. The aqueous phase, following removal of cells, usually contained about 50 to 80 nanomoles of glycerol per 300 μl of assayed sample if no inhibitory activity was present. Samples from the control tubes (no agonist) usually contained 0-5 nanomoles of glycerol per 300 μl of sample.

[1] = Rattus norvegicus, Adipocyte, 100 μM compound

| Molecule | Lipase % Inh. at 100 μM (Canine cardiac lipases) | Adipocyte % Inhib. at 3 μM (rat adipocyte lipolysis) | also measured |
| --- | --- | --- | --- |
| 2-methoxyphenyl-8-quinoyl carbamate [No. 5] | 72% |  | IC50 (rat adipocyte lipolysis): 5.8 µM |
| 2-methyl-8-quinolyl carbanilate [No. 19] |  |  | IC50 (Canine cardiac lipases): 48 µM; IC50 (rat adipocyte lipolysis): 10 µM |
| 2-methyl-8-quinolyl-4-bromo carbanilate [No. 21] | 69% | 28% |  |
| 2-methyl-8-quinolyl-4-methoxy carbanilate [No. 20] |  | 5% | IC50 (Canine cardiac lipases): 80 µM |
| 4-Methoxyphenyl-8-quinolyl Urea [No. 6] | 70% |  | Adipocyte % Inhib. at 100 μM (rat adipocyte lipolysis; 100 μM compound): 98% |
| 5,7-dichloro-8-quinolyl carbanilate [No. 24] | 68% |  | IC50 (rat adipocyte lipolysis): 0.2 µM |
| 5-chloro-8-quinolyl carbanilate [No. 22] | 68% | 29% |  |
| 8-(4-Methoxyphenylcarbamoyl)-quinolin)-5-sulfonic acid, Triethylamine [No. 23] | 76% |  | IC50 (rat adipocyte lipolysis): 35 µM |
| 8-Quinolyl-4-methoxy Acetanilide [No. 25] | 74% |  | IC50 (rat adipocyte lipolysis): 35 µM |
| 8-quinolyl-2,4-dimethoxy carbanilate [No. 15] | 64% | 84% |  |
| 8-quinolyl-2,5-dimethoxy carbanilate [No. 16] | 7% | 40% |  |
| 8-quinolyl-2-chloro carbanilate [No. 10] |  |  | IC50 (Canine cardiac lipases): 200 µM; Adipocyte % Inhib. at 200 μM (rat adipocyte lipolysis; 200 μM compound): 44% |
| 8-quinolyl-2-methyl carbanilate [No. 13] | 1% |  |  |
| 8-quinolyl-3-chloro carbanilate [No. 9] |  |  | IC50 (Canine cardiac lipases): 7300 µM; Adipocyte % Inhib. at 200 μM (rat adipocyte lipolysis; 200 μM compound): 4% |
| 8-quinolyl-3-methyl carbanilate [No. 12] | 41% | 5% |  |
| 8-quinolyl-3-trifluoromethyl carbanilate [No. 14] | 63% | 76% |  |

| Molecule | Lipase % Inh. at 100 μM (Canine cardiac lipases) | Adipocyte % Inhib. at 3 μM (rat adipocyte lipolysis) | also measured |
| --- | --- | --- | --- |
| 8-quinolyl-4-bromo carbanilate [No. 17] | 56% | 7% |  |
| 8-quinolyl-4-chloro carbanilate [No. 8] |  |  | IC50 (Canine cardiac lipases): 20 µM; IC50 (rat adipocyte lipolysis): 30 µM |
| 8-quinolyl-4-methoxy benzyl carbamate [No. 26] | 68% | 5% |  |
| 8-quinolyl-4-methoxy phenethyl carbamate [No. 27] | 69% | 4% |  |
| 8-quinolyl-4-methyl carbanilate [No. 11] | 58% | 52% |  |
| 8-quinolyl-carbanilate [No. 18] | 65% |  | IC50 (rat adipocyte lipolysis): 0.2 µM |
| 8-quninolyl-4-carbethoxy carbanilate [No. 7] | 75% |  | Adipocyte % Inhib. at 30 μM (rat adipocyte lipolysis; 30 μM compound): 3% |
| COc1ccc(NC(=O)Oc2cccc3cccnc23)cc1 [No. 1, 8-Quinolyl-4-Methoxy Carbanilate] |  |  | IC50 (Canine cardiac lipases): 17 µM |
| COc1ccccc1NC(=O)Oc1cccc2cccnc12 [No. 2, 8-quinolyl-2-methoxy carbanilate] |  |  | IC50 (Canine cardiac lipases): 40 µM |
| COc1cccc(NC(=O)Oc2cccc3cccnc23)c1 [No. 3, 8-quinolyl-3-methoxy carbanilate] |  |  | IC50 (Canine cardiac lipases): 18 µM |
| COc1ccc(CC(=O)Oc2cccc3cccnc23)cc1 [No. 30, 8-Quinoloyl-4-methoxyphenylAcetate] |  |  | inhibition at 100 µM (rat adipocyte lipolysis; [1]): 74% |
| COc1ccc(C(=O)Oc2cccc3cccnc23)cc1 [No. 31, 8-quinolyl-4-methoxy benzoate] | 13% |  | inhibition at 200 µM (rat adipocyte lipolysis; Rattus norvegicus, Adipocyte, 200 μM compound, read-out: Adipocyte % Inhib. at 200 μM): 49% |
| COc1ccc(NC(=O)COc2cccc3cccnc23)cc1 [compound 25] | 7% |  | inhibition at 100 µM (rat adipocyte lipolysis; [1]): 26% |
| (R)8-quinolyl alpha-methyl benzyl carbamate [No. 29] | 56% |  | Adipocyte % Inhib. at 200 μM (rat adipocyte lipolysis; 200 μM compound): 28% |
| (S)8-quinolyl alpha-methyl benzyl carbamate [No. 28] | 83% |  | Adipocyte % Inhib. at 200 μM (rat adipocyte lipolysis; 200 μM compound): 14% |
